Source: patent US9642354B2, “Method of freezing cells” (Cellulis, S.L., priority 2010, dated 2017)

Columns and labels:
BALB3T3 cells = assay: Cytotoxic test (MTT assay) on Balb3T3 fibroblasts thawed from two-layer frozen 96-well plate; assay type: cell-based; settings: 24 h treatment started 24 h post-thawing, 5-Fluorouracil 20, 40, 80, 100 μg/ml, Tamoxifen 0.02, 1.25, 2.5, 5 μM
Experimental: (§1) Balb3T3 (ATCC, LCC Standards) fibroblasts and smooth muscle aortic cells (SMAC, freshly isolated from Sprague Dawley rats, Harlan Laboratories) primary cells were cultured in complete culture medium consisting of endotoxin-free DMEM (Sigma-Aldrich) supplemented with 10% FCS, 100 μg/ml penicillin and 100 IU/ml streptomycin (Sigma-Aldrich). […] The resulting cells were allowed to grow for twelve days prior to cryopresentation. Both cell types were grown in flasks until they were 80% confluent and then harvested. Harvesting took place by incubating cells in 5 ml of PBS with 0.05% EDTA for 2 minutes, and final detachment was achieved by incubation in 0.1% trypsin and 0.05% EDTA for another 5 minutes. Cells were centrifuged at 400×G for 5 minutes. Then, a total of 4.8 ml of a solution at 4° C. containing 50,000 cells/50 μl of freezing 80% DMEM, 10% FCS, 10% DMSO (AppliChem) medium was prepared (cell density determined by haemocytometer), forming the so-called freezing solution. Besides, 100 μl of complete culture medium was disposed in each cell of a 96-well plate and frozen down to −80° C. Once frozen, the plate is recovered and 50 μl/well of the said freezing solution were added on top each well containing 100 μl of complete culture medium already frozen. […] Twenty four hours later a MTT assay was performed and cytotoxicity was calculated according to the absorbance values. […]

Smac cells = assay: Cytotoxic test (MTT assay) on smooth muscle aortic cells (SMAC) thawed from two-layer frozen 96-well plate; assay type: cell-based, rat; settings: 24 h treatment started 24 h post-thawing, 5-Fluorouracil 20, 40, 80, 100 μg/ml, Tamoxifen 0.02, 1.25, 2.5, 5 μM
Experimental: as §1

Row | Compound | cytotoxic response of BALB3T3 cells (BALB3T3 cells) | cytotoxic response of Smac cells (Smac cells)
1 | O=c1[nH]cc(F)c(=O)[nH]1 [5-Fluorouracil] | Concentration dependent cytotoxic response | Concentration dependent cytotoxic response
2 | CC/C(=C(\c1ccccc1)c1ccc(OCCN(C)C)cc1)c1ccccc1 [Tamoxifen] | Concentration dependent cytotoxic response | Concentration dependent cytotoxic response
